Patent publication US6391921B1 (priority 2000, dated 2002)

Tests used:
[1] = target: T1, Src family tyrosine kinase HCK (Homo sapiens, UniProt P08631); experiment: HCK kinase assay (immunoprecipitated from HCK-transfected COS-7 cells); type: biochemical; conditions: FIG. 1C; 1 hour exposure
T1 construct: expressed in transfected cells; host or cells: COS-7 cells transfected with pSV7c-HCK; immunoprecipitated with anti-HCK antibody
Protocol: For HCK kinase assays, HCK-transfected COS-7 cells were used. The cloning and expression of HCK in COS-7 cells has been described previously (ref 18). The pSV7c-HCK plasmid was transfected into 2×10^6 COS-7 cells using Lipofectamine (GIBCO/BRL), and the cells were harvested 48 hours later. The cells were lysed in NP-40 buffer and HCK was immunoprecipitated from the whole cell lysates with an anti-HCK antibody. Kinase assays were performed following a 1 hour exposure of the purified (BTK, SYK) or immunoprecipitated (HCK) tyrosine kinases to the test compound, as described in detail elsewhere (refs 18-22). Following electrophoresis, kinase gels were dried onto Whatman 3M filter paper and subjected to phosphoimaging on a Molecular Imager (Bio-Rad, Hercules, Calif.) as well as autoradiography on film. […] For each drug concentration, a BTK or SYK kinase activity index was determined by comparing the ratios of the kinase activity in phosphorimager units (PIU) and density of the protein bands in densitometric scanning units (DSU) to those of the baseline sample and using the formula: Activity Index=[PIU of kinase band/DSU of BTK/SYK protein band]test sample: [PIU of kinase band/DSU of BTK/SYK protein band]baseline control sample.

skh-1 mice = experiment: Histological studies of UVB-irradiated skin; type: in vivo
From the text: After mice from Example 7 were sacrificed electively, a skin specimen was removed and spread on a sheet of dental wax. An 8 mm^2 biopsy punch was taken and fixed in buffered formalin. 4-5 μm thick sections were cut from paraffin blocks. In order to study the histopathological changes in skin following UVB exposure, the tissue sections were stained with hematoxylin and eosin and the stained slides were examined microscopically.
The effects of compound D-58 on UVB-induced histological changes in skin were examined and the results are illustrated in the 40× magnifications of FIGS. 8A-8C. The normal epidermis typically has a 2-3 cell layer and contains scattered inflammatory cells especially around hair follicles (FIG. 8A). […] Large numbers of neutrophils also were accumulated in the dermis (FIG. 8B). In contrast, the skin of mice treated with compound D-58 looked very much like the skin of unirradiated controls (FIG. 8C), with 1-2 cell layers of epidermis and normal dermis.

RBL-2H3 mast cells = experiment: IgE receptor/FcεRI-mediated mast cell LTC4 release; type: cell-based, rat; conditions: 1 hour prior to DNP-BSA challenge; FIG. 3B
Protocol: Monolayers of RBL-2H3 rat mast cells were sensitized with monoclonal anti-DNP IgE antibody (0.24 mg/ml) for 1 hour at 37° C. in a 48-well tissue culture plate. Unbound IgE was removed by washing the cells with phosphate buffered saline. After washing, PIPES-buffered saline containing 1 mM calcium chloride was added to the monolayers of the RBL-2H3 cells. The cells were challenged with 20 ng/ml DNP-BSA for 30 minutes at 37° C. The plate was centrifuged at 200 g for 10 minutes at 4° C. and supernatants were saved. […]
To study the effects of compound D-58, RBL-2H3 cells were incubated with compound D-58 at the indicated concentrations or vehicle for 1 hour prior to antigen challenge. Mast cell degranulation (β-hexosaminidase release, % of total) was assessed by measuring the β-hexosaminidase levels in cell free supernatants and Triton X-100 solubilized pellets using the formula: β-hexosaminidase release, % of total=100×(β-hexosaminidase level in supernatant/β-hexosaminidase level in supernatant+solubilized pellet). […]
In order to examine the effects of compound D-58 on IgE receptor/FcεRI-mediated mast cell activation and mediator release, RBL-2H3 mast cells were exposed to increasing concentrations of this ethanone or vehicle prior to challenge with antigen (DNP-BSA). […] Mast cell β-hexosaminidase release (FIG. 3A) and LTC4 release (FIG. 3B) were measured. […]

T1 sequence (P08631 whole entry): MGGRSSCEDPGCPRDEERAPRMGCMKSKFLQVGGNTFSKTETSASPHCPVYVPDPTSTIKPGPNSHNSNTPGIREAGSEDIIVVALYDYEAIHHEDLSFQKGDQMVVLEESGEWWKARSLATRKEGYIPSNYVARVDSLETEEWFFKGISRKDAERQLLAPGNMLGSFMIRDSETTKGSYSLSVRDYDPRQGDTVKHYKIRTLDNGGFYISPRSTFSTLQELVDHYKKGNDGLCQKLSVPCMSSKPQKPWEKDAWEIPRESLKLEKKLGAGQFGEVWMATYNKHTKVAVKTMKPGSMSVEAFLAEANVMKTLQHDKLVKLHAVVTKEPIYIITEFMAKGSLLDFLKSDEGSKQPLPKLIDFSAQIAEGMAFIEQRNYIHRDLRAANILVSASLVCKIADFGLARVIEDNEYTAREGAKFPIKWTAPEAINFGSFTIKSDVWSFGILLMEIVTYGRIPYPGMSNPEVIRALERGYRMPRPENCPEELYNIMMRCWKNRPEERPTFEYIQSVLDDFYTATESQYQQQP

COc1ccc(CC(=O)c2c(O)cc(O)cc2O)cc1 [Compound D-58]
IC50 [1]: > 200 µM
cell layers of epidermis (skh-1 mice; UVB-irradiated skin of treated mice, FIG. 8C, UVB-irradiated untreated 3-5, normal 2-3): 1-2
edema and neutrophil influx in UVB irradiated skin (skh-1 mice; histology, hematoxylin and eosin): prevented the development of edema and neutrophil influx
IgE/antigen induced LTC4 release (RBL-2H3 mast cells): inhibited
